Results taken from patent US4705799A, “Aminomethyl oxooxazolidinyl benzenes useful as antibacterial agents” (E. I. Du Pont de Nemours and Company, priority 1985, dated 1987).

How the values were obtained:
[1] = system: Escherichia coli; experiment: In vitro broth dilution minimal inhibitory concentration (standard microdilution method); type: cell-based
[2] = system: Staphylococcus aureus; experiment: In vivo efficacy of compounds administered subcutaneously in mouse intraperitoneal infections; conditions: sc, 168 h; mouse i.p. Staphylococcus aureus infection; subcutaneous; dosed at infection and 4 h post-infection; 7 days; read-out: ED50 (50 percent effective dose)
[3] = system: Staphylococcus aureus; experiment: In vivo efficacy of orally administered compounds in mouse intraperitoneal infections
[4] = system: Staphylococcus epidermidis; experiment: In vitro broth dilution minimal inhibitory concentration (standard microdilution method); type: cell-based; conditions: 24 h, Mueller-Hinton broth, 24-hour, read-out: Microdilution Broth MIC
[5] = system: Staphylococcus aureus; experiment: In vitro test, same procedures as microdilution MIC; type: cell-based; conditions: same procedures as Table 9
Source text: It is believed that the compound of Example 123 would provide control at higher concentrations or under different conditions.

Question: CCCCCCN(CC1CN(c2ccc(S(C)(=O)=O)cc2)C(=O)O1)C(=O)OC (racemic) [Example 123, (dl)-N-hexyl-N-[3-[4-(methylsulfonyl)phenyl]-2-oxooxazolidin-5-ylmethyl]carbamic acid, methyl ester] was tested. Which MIC ([1]; Escherichia coli, Mueller-Hinton broth, 24-hour, read-out: Microdilution Broth MIC) did it give?
Answer: The MIC was greater than 200 µg/mL.

Question: What about the “control of Escherichia coli in vitro” value ([1]; same procedures as Table 9, result in words) of the same molecule?
Answer: Its value is “no control”.

Question: What about the ED50 [2] of the same molecule?
Answer: The ED50 was 46.6 mg/kg.

Question: And the ED50 ([3]; Staphylococcus aureus, po, 168 h, mouse i.p. Staphylococcus aureus infection, oral, dosed at infection and 4 h post-infection, 7 days, read-out: ED50 (50 percent effective dose))?
Answer: The ED50 was 27.6 mg/kg.

Question: And the “antibacterial effect in vivo” value ([3]; in vivo, see Tables 10 and 11)?
Answer: Its value is “found to exhibit an antibacterial effect in vivo”.

Question: And the MIC [4]?
Answer: The MIC was greater than 200 µg/mL.

Question: What about the “control of Staphylococcus aureus in vitro” value [5] of the same molecule?
Answer: Its value is “no control”.
